Data from PMC4450297, “Screening Active Compounds from Garcinia Species Native to China Reveals Novel Compounds Targeting the STAT/JAK Signaling Pathway” (BioMed Research International, 2015).

Legend:
Assay in all cases: Cell panel screen (CellTiter-Glo)
Type in all cases: cell-based, human
A498 = A498 (listed under Lung), 20 micromolar, 72 hrs
Method in brief: (§1)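 72 h compound exposure at 20 μM final; ATP luminescence endpoint; % inhibition vs DMSO control.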

A704 = A704 (Kidney), 20 micromolar, 72 hrs
Method in brief: as §1

BT-474 = BT-474 (Breast), 20 micromolar, 72 hrs
Method in brief: as §1

BT-549 = BT-549 (Breast), 20 micromolar, 72 hrs
Method in brief: as §1

Bel-7402 = Bel-7402 (Liver), 20 micromolar, 72 hrs
Method in brief: as §1

C3A = C3A (Liver), 20 micromolar, 72 hrs
Method in brief: as §1

C8166 = C8166 (Leukemia), 20 micromolar, 72 hrs
Method in brief: as §1

CCF-STTG1 = CCF-STTG1 (Brain), 20 micromolar, 72 hrs
Method in brief: as §1

CW-2 = CW-2 (Colon), 20 micromolar, 72 hrs
Method in brief: as §1

ChaGo-K-1 = ChaGo-K-1 (Lung), 20 micromolar, 72 hrs
Method in brief: as §1

Colo 205 = conditions: Colo 205, 20 micromolar, 72 hrs
Method in brief: as §1

HCC1395 = HCC1395 (Breast), 20 micromolar, 72 hrs
Method in brief: as §1

HCC1569 = HCC1569 (Breast), 20 micromolar, 72 hrs
Method in brief: as §1

HCC1599 = HCC1599 (Breast), 20 micromolar, 72 hrs
Method in brief: as §1

HCC1937 = HCC1937 (Breast), 20 micromolar, 72 hrs
Method in brief: as §1

HEC-1-A = HEC-1-A (Uterus), 20 micromolar, 72 hrs
Method in brief: as §1

HGC-27 = HGC-27 (Stomach), 20 micromolar, 72 hrs
Method in brief: as §1

HPAF-II = HPAF-II (Pancreas), 20 micromolar, 72 hrs
Method in brief: as §1

HT-1197 = HT-1197 (Urinary bladder), 20 micromolar, 72 hrs
Method in brief: as §1

J82 = J82 (Urinary bladder), 20 micromolar, 72 hrs
Method in brief: as §1

M059J = M059J (Brain), 20 micromolar, 72 hrs
Method in brief: as §1

MSTO-211-H = MSTO-211-H (Lung), 20 micromolar, 72 hrs
Method in brief: as §1

NCI-H1623 = NCI-H1623 (Lung), 20 micromolar, 72 hrs
Method in brief: as §1

NCI-H1694 = NCI-H1694 (Lung), 20 micromolar, 72 hrs
Method in brief: as §1

NCI-H1770 = NCI-H1770 (Lung), 20 micromolar, 72 hrs
Method in brief: as §1

NCI-H2347 = NCI-H2347 (Lung), 20 micromolar, 72 hrs
Method in brief: as §1

NCI-H2405 = NCI-H2405 (Lung), 20 micromolar, 72 hrs
Method in brief: as §1

NCI-H28 = NCI-H28 (Lung), 20 micromolar, 72 hrs
Method in brief: as §1

NCI-H524 = NCI-H524 (Lung), 20 micromolar, 72 hrs
Method in brief: as §1

Panc 03.27 = Panc 03.27 (Pancreas), 20 micromolar, 72 hrs
Method in brief: as §1

RL95 = RL95 (Uterus), 20 micromolar, 72 hrs
Method in brief: as §1

SW13 = SW13 (Adrenal gland), 20 micromolar, 72 hrs
Method in brief: as §1

T47D = T47D (Breast), 20 micromolar, 72 hrs
Method in brief: as §1

T98G = T98G (Brain), 20 micromolar, 72 hrs
Method in brief: as §1

TCCSUP = TCCSUP (Urinary bladder), 20 micromolar, 72 hrs
Method in brief: as §1

ZR-75-30 = ZR-75-30 (Breast), 20 micromolar, 72 hrs
Method in brief: as §1

Row | SMILES | Percent Inhibition (A498) | Percent Inhibition (A704) | Percent Inhibition (BT-474) | Percent Inhibition (BT-549) | Percent Inhibition (Bel-7402) | Percent Inhibition (C3A) | Percent Inhibition (C8166) | Percent Inhibition (CCF-STTG1) | Percent Inhibition (CW-2) | Percent Inhibition (ChaGo-K-1) | Percent Inhibition (Colo 205) | Percent Inhibition (HCC1395) | Percent Inhibition (HCC1569) | Percent Inhibition (HCC1599) | Percent Inhibition (HCC1937) | Percent Inhibition (HEC-1-A) | Percent Inhibition (HGC-27) | Percent Inhibition (HPAF-II) | Percent Inhibition (HT-1197) | Percent Inhibition (J82) | other results
1 | CC(C)=CCCC1(C)C=Cc2c(O)c3c(c(CC=C(C)C)c2O1)OC12C(=CC4CC1C(C)(C)OC2(CC=C(C)C(=O)O)C4=O)C3=O (mixture of isomers) [GB14] | 97% | 97% | 98% | 98% | 97% | 98% | 97% | 98% | 98% | 98% | 98% | 98% | 98% | 98% | 98% | 97% | 98% | 97% | 98% | 97% | Percent Inhibition (M059J): 97%; Percent Inhibition (MSTO-211-H): 97%; Percent Inhibition (NCI-H1623): 98%; Percent Inhibition (NCI-H1694): 98%; Percent Inhibition (NCI-H1770): 97%; Percent Inhibition (NCI-H2347): 97%; Percent Inhibition (NCI-H2405): 97%; Percent Inhibition (NCI-H28): 97%; Percent Inhibition (NCI-H524): 98%; Percent Inhibition (Panc 03.27): 97%; Percent Inhibition (RL95): 97%; Percent Inhibition (SW13): 97%; Percent Inhibition (T47D): 98%; Percent Inhibition (T98G): 98%; Percent Inhibition (TCCSUP): 98%; Percent Inhibition (ZR-75-30): 99%
2 | CC(C)=CCc1c(O)cc2oc3c(c(=O)c2c1O)C(CC=C(C)C)(CC=C(C)C)C(=O)C(O)=C3 [bn-2, Allanxanthone C] | 34% | 4% | 22% | 54% | 64% | 39% | 86% | 52% | 72% | 75% | 69% | 84% | 63% | 79% | 75% | 51% | 53% | 28% | 38% | 43% | Percent Inhibition (M059J): 51%; Percent Inhibition (MSTO-211-H): 72%; Percent Inhibition (NCI-H1623): 49%; Percent Inhibition (NCI-H1694): 99%; Percent Inhibition (NCI-H1770): 90%; Percent Inhibition (NCI-H2347): 40%; Percent Inhibition (NCI-H2405): 40%; Percent Inhibition (NCI-H28): 52%; Percent Inhibition (NCI-H524): 97%; Percent Inhibition (Panc 03.27): 48%; Percent Inhibition (RL95): 70%; Percent Inhibition (SW13): 15%; Percent Inhibition (T47D): 54%; Percent Inhibition (T98G): 98%; Percent Inhibition (TCCSUP): 75%; Percent Inhibition (ZR-75-30): 86%
